Source: patent US20220152154A1, “GROWTH DIFFERENTIATION FACTOR 15 COMBINATION THERAPY” (Amgen Inc., priority 2019, published 2022)

How the values were obtained:
[1] = Body weight change in DIO mice treated for 5 weeks; assay type: in vivo; parameters: key to Significance of Body Weight Change: ns: not significant; *: p < 0.05; **: p < 0.005; ***: p < 0.001; ****: p < 0.0001; settings: subcutaneous; for Significance of Body Weight Change: male C57Bl/6 DIO mice, 2-way ANOVA with Dunnett's analysis
Method: (§1) Male C57Bl/6 DIO mice, 19-20 weeks old (13-14 weeks on high fat diet) at beginning of dosing, were placed into the following treatment groups: Group A—Vehicle, in which the animals were administered vehicle weekly; Group B—Dulaglutide, in which the animals were administered 0.1 mg/kg (2 nmol/kg) of dulaglutide twice per week; Group C—GIPR Ab, in which the animals were administered 5 mg/kg (33 nmol/kg) of antibody 2.63.1 (having a light and heavy chain sequence of SEQ ID NOs: 105 and 106, respectively) weekly and vehicle weekly (the latter being on the alternate dulaglutide dosing day); Group D—GDF15, in which the animals were administered 0.125 mg/kg (1 nmol/kg) of FcΔ10(−)-(G4S)4-GDF15 (SEQ ID NO: 39) (along with its heterodimerization partner, FcΔ10(+,K) (SEQ ID NO: 32)) weekly and vehicle weekly (the latter on the alternate dulaglutide dosing day); Group E—GDF15+Dulaglutide, in which the animals were administered 0.125 mg/kg (1 nmol/kg) of FcΔ10(−)-(G4S)4-GDF15) (along with its heterodimerization partner, FcΔ10(+,K)) weekly and 0.1 mg/kg (2 nmol/kg) of dulaglutide twice per week; Group F—GDF15+GIPR Ab, in which the animals were administered 0.125 mg/kg (1 nmol/kg) of FcΔ10(−)-(G4S)4-GDF15 (along with its heterodimerization partner, FcΔ10(+,K)) weekly and 5 mg/kg (33 nmol/kg) of antibody 2.63.1 weekly. The animals were dosed for 5 weeks with through subcutaneous injection.
Body weight was measured twice per week.

[2] = Food intake measured three consecutive days per week; assay type: in vivo; parameters: key: ns: not significant; *: p < 0.05; **: p < 0.005; ***: p < 0.001; ****: p < 0.0001; settings: male C57Bl/6 DIO mice, 2-way ANOVA with Dunnett's analysis
Method: as §1

dulaglutide [reference compound]
Significance of Body Weight Change ([1]; D0): ns | Significance of Body Weight Change ([1]; D3): ns | Significance of Body Weight Change ([1]; D7): ns | Significance of Body Weight Change ([1]; D10): ** (p < 0.005) | Significance of Body Weight Change ([1]; D14): ** (p < 0.005) | Significance of Body Weight Change ([1]; D17): **** (p < 0.0001) | Significance of Body Weight Change ([1]; D21): *** (p < 0.001) | Significance of Body Weight Change ([1]; D31): *** (p < 0.001) | Significance of Body Weight Change ([1]; D35): *** (p < 0.001) | Significance of Body Weight Change ([1]; D-4): ns | change in body weight ([1]; five weeks after treatment, DIO mice): −1.96% | Significance of Food Intake Assay ([2]; D2): ns | Significance of Food Intake Assay ([2]; D8): ns | Significance of Food Intake Assay ([2]; D9): ns | Significance of Food Intake Assay ([2]; D10): ns | Significance of Food Intake Assay ([2]; D15): ns | Significance of Food Intake Assay ([2]; D16): ns | Significance of Food Intake Assay ([2]; D17): * (p < 0.05) | Significance of Food Intake Assay ([2]; D22): **** (p < 0.0001) | Significance of Food Intake Assay ([2]; D23): ns | Significance of Food Intake Assay ([2]; D24): ns | Significance of Food Intake Assay ([2]; D29): ns | Significance of Food Intake Assay ([2]; D30): ns | Significance of Food Intake Assay ([2]; D31): ns
